Source: patent US20250154163A1, “Pyrimidinone-Containing 17-Beta-Hydroxysteroid Dehydrogenase Type 13 Inhibitors” (ENANTA PHARMACEUTICALS, INC., priority 2023, published 2025)
Where a name gives a salt, the structure may show the parent alone.

Columns and labels:
[1] = molecular target: T1, Recombinant human 17β-HSD13 (Homo sapiens, UniProt Q7Z5P4); assay: 17β-HSD13 rapid-fire mass spectrometry assay (RF/MS assay); type: biochemical; settings: inhibition of 17β-HSD13, RF/MS assay; HSD17B13 80 nM, LTB4 10 μM, NAD+ 0.5 mM, RT 3 h
T1 construct: host or cells: Sf9 insect cells
T1 sequence (Q7Z5P4 20-300): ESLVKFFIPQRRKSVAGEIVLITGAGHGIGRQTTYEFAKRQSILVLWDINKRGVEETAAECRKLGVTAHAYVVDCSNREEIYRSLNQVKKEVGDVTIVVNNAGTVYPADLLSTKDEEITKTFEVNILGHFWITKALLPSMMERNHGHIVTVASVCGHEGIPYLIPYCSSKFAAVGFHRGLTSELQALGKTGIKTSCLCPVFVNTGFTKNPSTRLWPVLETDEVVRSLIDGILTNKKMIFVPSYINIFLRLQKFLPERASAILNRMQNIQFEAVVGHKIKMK
Description: 17(3-HSD13 rapid-fire mass spectrometry assay (RF/MS assay). Recombinant human 17β-HSD13 was expressed and purified from sf9 cells at Charles River Labs (Saffron Walden, UK). Leukotriene B4 (Catalog #71160-24-2) and 12-oxoleukotriene B4 (Catalog #20140) were purchased from Cayman Chemicals (Ann Arbor, MI). NAD+ (Catalog #N8285), BSA (Catalog #A7030), DMSO (Catalog #D2650), and Tween-20 (Catalog #11332465001) were purchased from Sigma (St. Louis, MO). Formic acid (Catalog #28905) was from ThermoFisher Scientific and 384 deep well PP microplates (Catalog #784261) were from Greiner Bio-One. In a typical IC50 assay performed in a 384w PP microplate, test compounds (0-100 μM) were incubated with HSD17B13 (80 nM), LTB4 (10 μM), and NAD^+ (0.5 mM) in 10 μL assay buffer (20 mM Tris (pH 7.5), BSA (0.005%), and Tween-20 (0.01%)) at RT for 3 h. The assays were quenched by adding 20 μL of 0.15% aqueous formic acid and the plates were frozen at −80° C. RF/MS analysis was performed at PureHoney Technologies (Billerica, MA) on a RapidFire RF300 system (Agilent Technologies, Inc.) coupled to an API 4000 triple quadrupole mass spectrometer (Sciex) equipped with Agilent RapidFire cartridge type A (C4). The mobile phase was 0.09% formic acid and 0.01% trifluoracetic acid in water (Buffer A) and 0.09% formic acid and 0.01% trifluoracetic acid in 80% aqueous acetonitrile (Buffer B). The RapidFire method conditions were the following: 250 ms aspirate, 3000 ms load/desalt, 4000 ms elute, and 500 ms re-equilibrate. RF-MS/MS was performed in negative polarity (−4500 V), the source temperature was 650° C., and gas 1 and gas 2 settings for nitrogen were set to 50. The curtain gas and collision gas were also nitrogen and were set to 20 and 12, respectively. Leukotriene B4 (335.3) and 12-oxoLeukotriene B4 (333.3) SRM transitions were optimized with Discovery Quant software and extracted ion counts for these analytes were determined.
Data Analysis. 17β-HSD13 enzyme activity was measured as percent conversion of extracted ion counts and normalized to high and low controls to determine percent residual activity at various concentrations of test compounds. Data was fitted to normalized activity (variable slope) versus concentration fit in GraphPad Prism 7 to determine IC50. All experiments were run in duplicates.
By using the above method, the inhibition of 17β-HSD13 was evaluated for the compounds of Formula (I). IC50 ranges are as follows: A is <0.1 μM; B is 0.1 μM-1.0 μM; C is 1.0 μM-10 μm; and D is >10 μM.

[2] = molecular target: T2, human HSD17β13 (stable HEK293T cell line overexpressing human HSD17β13) (Homo sapiens, UniProt Q7Z5P4); assay: HSD17β13 inhibitor cell-based screening assay (conversion of estradiol-d2 to estrone-d2 by RF-MS); settings: conversion of estradiol-d2 to estrone-d2 after 24 hours
T2 construct: expressed in transfected cells
T2 sequence (Q7Z5P4 20-300): T1 sequence (Q7Z5P4 20-300)
Method in brief: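 Cellular IC50 is based on 24-h conversion of estradiol-d2 (5 μM final) to estrone-d2, measured by RF-MS in acetonitrile-precipitated supernatants. Assay uses human HSD17β13-overexpressing HEK293T cells (7.5E3/well, 1% charcoal/dextran FBS MEM), with compounds dosed as a 9-point 1:3 series to 10 μM final. ATPlite luminescence on overexpressing and parent lines measured viability.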

| IC50 [1] [nM] | IC50 [2] [nM] | SMILES |
| --- | --- | --- |
| 100 to 1000 | 1000 to 100000 | COc1ccc(-c2nc3sc4c(OS(=O)(=O)O)cccc4c3c(=O)n2Cc2cnco2)c(C2CC2)c1 [Example 23, 2-(2-cyclopropyl-4-methoxyphenyl)-3-(oxazol-5-ylmethyl)-4-oxo-3,4-dihydrobenzo[4,5]thieno[2,3-d]pyrimidin-8-yl hydrogen sulfate] |
| < 100 | < 100 | COc1ccc(-c2nc3sc4c(O)c(Br)ccc4c3c(=O)n2Cc2cnco2)c(C2CC2)c1 [Example 24, 7-bromo-2-(2-cyclopropyl-4-methoxyphenyl)-8-hydroxy-3-(oxazol-5-ylmethyl)benzo[4,5]thieno[2,3-d]pyrimidin-4(3H)-one] |
| < 100 | 100 to 500 | COc1ccc(-c2nc3sc4c(O)cccc4c3c(=O)n2Cc2ocnc2F)c(C2CC2)c1 [Example 25, 2-(2-cyclopropyl-4-methoxyphenyl)-3-((4-fluorooxazol-5-yl)methyl)-8-hydroxybenzo[4,5]thieno[2,3-d]pyrimidin-4(3H)-one] |
| 100 to 1000 | 1000 to 100000 | COc1ccc(-c2nc3sc4c(O)c(N)ccc4c3c(=O)n2Cc2cnco2)c(C2CC2)c1 [Example 28, 7-amino-2-(2-cyclopropyl-4-methoxyphenyl)-8-hydroxy-3-(oxazol-5-ylmethyl)benzo[4,5]thieno[2,3-d]pyrimidin-4(3H)-one] |
| > 10000 | 500 to 1000 | COc1ccc(-c2nc3sc4c(ccc5[nH]c(=O)oc54)c3c(=O)n2Cc2cnco2)c(C2CC2)c1 [Example 29, 8-(2-cyclopropyl-4-methoxyphenyl)-7-(oxazol-5-ylmethyl)-3,7-dihydrooxazolo[5″,4″:3′,4′]benzo[1′,2′:4,5]thieno[2,3-d]pyrimidine-2,6-dione] |
| > 10000 | 1000 to 100000 | COc1ccc(-c2nc3sc4c(ccc5[nH]c(=O)[nH]c54)c3c(=O)n2Cc2cnco2)c(C2CC2)c1 [Example 30, 8-(2-cyclopropyl-4-methoxyphenyl)-7-(oxazol-5-ylmethyl)-3,7-dihydro-1H-imidazo[4″,5″:3′,4′]benzo[1′,2′:4,5]thieno[2,3-d]pyrimidine-2,6-dione] |
| < 100 | 100 to 500 | COc1ccc(-c2nc3sc4c(O)c(C)ccc4c3c(=O)n2Cc2cnco2)c(C2CC2)c1 [Example 32, 2-(2-cyclopropyl-4-methoxyphenyl)-8-hydroxy-7-methyl-3-(oxazol-5-ylmethyl)benzo[4,5]thieno[2,3-d]pyrimidin-4(3H)-one] |
| > 10000 | 1000 to 100000 | COc1ccc(-c2nc3sc4cc(O)ccc4c3c(=O)n2Cc2cnco2)c(C2CC2)c1 [Example 36, 2-(2-cyclopropyl-4-methoxyphenyl)-7-hydroxy-3-(oxazol-5-ylmethyl)benzo[4,5]thieno[2,3-d]pyrimidin-4(3H)-one] |
| < 100 | < 100 | COc1ccc(-c2nc3sc4c(O)c(Cl)ccc4c3c(=O)n2Cc2cc(C)no2)c(C2CC2)c1 [Example 39, 7-chloro-2-(2-cyclopropyl-4-methoxyphenyl)-8-hydroxy-3-((3-methylisoxazol-5-yl)methyl)benzo[4,5]thieno[2,3-d]pyrimidin-4(3H)-one] |
| < 100 | < 100 | O=c1c2c(nc(-c3ccc(F)cc3C3CC3)n1Cc1cc(C(F)(F)F)no1)sc1c(O)c(Cl)ccc12 [Example 40, 7-chloro-2-(2-cyclopropyl-4-fluorophenyl)-8-hydroxy-3-((3-(trifluoromethyl)isoxazol-5-yl)methyl)benzo[4,5]thieno[2,3-d]pyrimidin-4(3H)-one] |
| < 100 | < 100 | CCc1ncc(Cn2c(-c3ccc(OC)cc3C3CC3)nc3sc4c(O)c(Cl)ccc4c3c2=O)s1 [Example 41, 7-chloro-2-(2-cyclopropyl-4-methoxyphenyl)-3-((2-ethylthiazol-5-yl)methyl)-8-hydroxybenzo[4,5]thieno[2,3-d]pyrimidin-4(3H)-one] |
| < 100 | < 100 | O=c1c2c(nc(-c3ccc(F)cc3C3CC3)n1Cc1cnco1)sc1c(O)c(Cl)ccc12 [Example 42, 7-chloro-2-(2-cyclopropyl-4-fluorophenyl)-8-hydroxy-3-(oxazol-5-ylmethyl)benzo[4,5]thieno[2,3-d]pyrimidin-4(3H)-one] |
| < 100 | < 100 | Cc1cc(Cn2c(-c3ccc(F)cc3C3CC3)nc3sc4c(O)c(Cl)ccc4c3c2=O)on1 [Example 43, 7-chloro-2-(2-cyclopropyl-4-fluorophenyl)-8-hydroxy-3-((3-methylisoxazol-5-yl)methyl)benzo[4,5]thieno[2,3-d]pyrimidin-4(3H)-one] |
| < 100 | < 100 | Cc1ncc(Cn2c(-c3ccc(F)cc3C3CC3)nc3sc4c(O)c(Cl)ccc4c3c2=O)o1 [Example 44, 7-chloro-2-(2-cyclopropyl-4-fluorophenyl)-8-hydroxy-3-((2-methyloxazol-5-yl)methyl)benzo[4,5]thieno[2,3-d]pyrimidin-4(3H)-one] |
| < 100 | < 100 | COc1ccc(-c2nc3sc4c(O)c(Cl)ccc4c3c(=O)n2Cc2cc(C(F)(F)F)no2)c(C2CC2)c1 [Example 48, 7-chloro-2-(2-cyclopropyl-4-methoxyphenyl)-8-hydroxy-3-((3-(trifluoromethyl)isoxazol-5-yl)methyl)benzo[4,5]thieno[2,3-d]pyrimidin-4(3H)-one] |
| < 100 | < 100 | O=c1c2c(nc(-c3ccc(F)cc3C3CC3)n1Cc1cnc(C3CC3)o1)sc1c(O)c(Cl)ccc12 [Example 50, 7-chloro-2-(2-cyclopropyl-4-fluorophenyl)-3-((2-cyclopropyloxazol-5-yl)methyl)-8-hydroxybenzo[4,5]thieno[2,3-d]pyrimidin-4(3H)-one] |
| < 100 | < 100 | O=c1c2c(nc(-c3ccc(F)cc3C3CC3)n1Cc1ccno1)sc1c(O)c(Cl)ccc12 [Example 52, 7-chloro-2-(2-cyclopropyl-4-fluorophenyl)-8-hydroxy-3-(isoxazol-5-ylmethyl)benzo[4,5]thieno[2,3-d]pyrimidin-4(3H)-one] |
| < 100 | < 100 | O=c1c2c(nc(-c3cc(F)c(F)cc3C3CC3)n1Cc1cnc(C(F)(F)F)nc1)sc1c(O)c(Cl)ccc12 [Example 63, 7-chloro-2-(2-cyclopropyl-4,5-difluorophenyl)-8-hydroxy-3-((2-(trifluoromethyl)pyrimidin-5-yl)methyl)benzo[4,5]thieno[2,3-d]pyrimidin-4(3H)-one] |
| < 100 | < 100 | O=c1c2c(nc(-c3cc(F)c(F)cc3C3CC3)n1Cc1cc(C(F)(F)F)on1)sc1c(O)c(Cl)ccc12 [Example 66, 7-chloro-2-(2-cyclopropyl-4,5-difluorophenyl)-8-hydroxy-3-((5-(trifluoromethyl)isoxazol-3-yl)methyl)benzo[4,5]thieno[2,3-d]pyrimidin-4(3H)-one] |
| < 100 | < 100 | CS(=O)(=O)c1ccc(-c2nc3sc4c(O)c(F)ccc4c3c(=O)n2Cc2cnc(C(F)(F)F)nc2)c(C2CC2)c1 [Example 71, 2-(2-cyclopropyl-4-(methylsulfonyl)phenyl)-7-fluoro-8-hydroxy-3-((2-(trifluoromethyl)pyrimidin-5-yl)methyl)benzo[4,5]thieno[2,3-d]pyrimidin-4(3H)-one] |
